From ChEMBL document CHEMBL1146834, “1-Azakenpaullone is a selective inhibitor of glycogen synthase kinase-3 beta” (Bioorg Med Chem Lett, 2004)

Legend:
[1] = target: Cyclin-dependent kinase 1/cyclin B (Homo sapiens, UniProt P06493); test: Inhibition of human cyclin-dependent kinase 1-cyclin B; type: protein-complex assay
[2] = species on record: Homo sapiens; test: Relative inhibition of human CDK-1 and GSK3-beta
[3] = target: Glycogen synthase kinase-3 beta (Homo sapiens, UniProt P49841)
Description: Inhibition of human glycogen synthase kinase-3 beta

[4] = target: Cyclin-dependent kinase 5/CDK5 activator 1 (Homo sapiens, UniProt Q00535); test: Inhibition of human Cyclin-dependent kinase 5-p35nck5a; type: protein-complex assay
Cyclin-dependent kinase 5/CDK5 activator 1, sequence (Q00535 whole entry): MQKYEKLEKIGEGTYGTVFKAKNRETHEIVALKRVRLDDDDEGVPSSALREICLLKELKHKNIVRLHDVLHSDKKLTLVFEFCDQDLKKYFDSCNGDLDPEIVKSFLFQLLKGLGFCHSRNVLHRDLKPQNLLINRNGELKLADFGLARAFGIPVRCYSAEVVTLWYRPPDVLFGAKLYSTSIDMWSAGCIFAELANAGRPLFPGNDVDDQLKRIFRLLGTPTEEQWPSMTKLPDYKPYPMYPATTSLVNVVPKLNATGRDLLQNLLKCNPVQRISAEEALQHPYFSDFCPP
Cyclin-dependent kinase 5/CDK5 activator 1, sequence (Q15078 whole entry, further chain): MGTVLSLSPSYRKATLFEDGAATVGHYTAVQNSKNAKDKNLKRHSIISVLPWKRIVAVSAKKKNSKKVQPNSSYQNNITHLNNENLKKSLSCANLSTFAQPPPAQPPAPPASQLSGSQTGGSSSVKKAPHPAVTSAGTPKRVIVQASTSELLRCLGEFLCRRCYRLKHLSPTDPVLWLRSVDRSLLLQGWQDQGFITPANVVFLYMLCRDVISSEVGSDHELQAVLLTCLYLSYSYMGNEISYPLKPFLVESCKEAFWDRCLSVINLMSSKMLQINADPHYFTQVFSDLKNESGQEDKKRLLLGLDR

Glycogen synthase kinase-3 beta, sequence (P49841 whole entry): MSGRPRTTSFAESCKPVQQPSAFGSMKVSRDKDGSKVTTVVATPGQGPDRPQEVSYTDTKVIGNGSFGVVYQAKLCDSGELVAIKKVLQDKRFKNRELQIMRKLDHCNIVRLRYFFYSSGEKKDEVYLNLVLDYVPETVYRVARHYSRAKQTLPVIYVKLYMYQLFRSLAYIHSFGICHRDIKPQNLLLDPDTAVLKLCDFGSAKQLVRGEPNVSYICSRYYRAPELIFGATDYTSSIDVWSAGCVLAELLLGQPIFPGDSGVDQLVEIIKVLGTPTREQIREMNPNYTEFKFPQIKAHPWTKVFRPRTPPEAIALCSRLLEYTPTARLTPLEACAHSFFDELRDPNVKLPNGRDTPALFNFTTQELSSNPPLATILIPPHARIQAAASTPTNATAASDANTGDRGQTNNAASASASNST

Row | SMILES | IC50 [1] [nM] | Selectivity index [2] | IC50 [3] [µM] | IC50 [4] [nM]
1 | O=C1Cc2c([nH]c3ccc(Br)cc23)-c2cccnc2N1 | 8400 | 1.4 | 6 | 12000
2 | O=Nc1c(-c2c(O)[nH]c3ccc(I)cc23)[nH]c2ccccc12 | 25 | – | – | 20
3 | NC1=NC(=O)/C(=C2\CCNC(=O)c3[nH]c(Br)cc32)N1 [HYMENIALDISINE] | 22 | – | – | 28
4 | CC(C)c1c(-c2ccc(Cl)cc2)[nH]c2nccnc12 | – | 1.1 | – | –
5 | O=C1Cc2c([nH]c3ccc(Br)cc23)-c2ncccc2N1 [AZAKENPAULLONE] | 2000 | – | – | –
